Source: patent US7700584B2 (Hangzhou Minsheng Pharmaceuticals Co., Ltd., priority 2004, dated 2010)
pIC50: −log10 of the molar value. Structures can show the parent of a compound that is named as a salt. Where two headings read alike, the source gives them in different places.

Columns and labels:
[1] = test system: A-549 human lung adenocarcinoma; assay: In vitro inhibition rate to tumor cells (MTT), A-549; assay type: cell-based; details: for inhibition rate, Results (%) A-549: 50 μg/ml; for inhibition at 50 µg/mL: Homo sapiens, A549, 50 μg/ml, read-out: inhibition rate, Results (%) A-549
[2] = test system: SMMC-7721 human hepatic carcinoma; assay: In vitro inhibition rate to tumor cells (MTT), SMMC-7721; assay type: cell-based; details: for inhibition rate, Results (%) SMMC-7721: 50 μg/ml; for inhibition at 50 µg/mL: Homo sapiens, SMMC-7721, 50 μg/ml, read-out: inhibition rate, Results (%) SMMC-7721
[3] = test system: HL-60 human promyelocytic leukemia; assay: In vitro inhibition rate to tumor cells (MTT), HL-60; assay type: cell-based; details: Homo sapiens, HL-60, 50 μg/ml, read-out: inhibition rate, Results (%) HL-60
[4] = test system: LLC mouse Lewis lung carcinoma; assay: In vitro inhibition rate to tumor cells (MTT), LLC; assay type: cell-based; details: 50 μg/ml; for inhibition at 50 µg/mL: Mus musculus, Lewis lung carcinoma
[5] = test system: U-937 human histocytic lymphoma; assay: In vitro anti-tumor IC50 (MTT), U-937; assay type: cell-based; details: Homo sapiens, U-937; Table 4; read-out: IC50 (ug/ml) against tumor cell lines, U-937
Description: (§1) (1) Single cell suspension was seeded into 96-well plates (the cells was diluted in the PRMI-1640 minimum medium to 3×10^4 cells/ml, […] diluted cells/well). […] The experiments were performed in quadruplicate.
(§2) (2) The medium was removed. Solutions of the anti-tumor agents (50 compounds) were prepared in a freshly prepared medium at serial concentrations. […] of the solution was added into each well. Incubation was continued for 48 hours.
(§3) (3) 20 ug of 2 mg/ml MTT was added into each well, and incubated for 4 hours.
(§4) (4) The medium was removed from the well. The microplates were swiftly turned down to throw-off the medium. […] of DMSO was added into each well, and vortexed at room temperature for 10 minutes.
(§5) (5) OD value (λ=570 nm) was measured with an Enzyme-Linked Detector.
(§6) (6) The graph of cell vitality was plotted, and IC50 was calculated.

[6] = test system: MCF-7 human mammary adenocarcinoma; assay: In vitro anti-tumor IC50 (MTT), MCF-7; assay type: cell-based; details: Homo sapiens, MCF7; Table 4; read-out: IC50 (ug/ml) against tumor cell lines, MCF
Description: as §1, §2, §3, §4, §5, §6

[7] = test system: HL-60 human promyelocytic leukemia; assay: In vitro anti-tumor IC50 (MTT), HL-60; assay type: cell-based; details: Homo sapiens, HL-60; Table 4; read-out: IC50 (ug/ml) against tumor cell lines, HL-60
Description: as §1, §2, §3, §4, §5, §6

[8] = target: T1, HIV-1 proteinase (HIV-1 PR) (Human immunodeficiency virus type 1 group M subtype B, UniProt P04585); assay: Screening for in vitro activity against HIV-1 proteinase; assay type: biochemical; details: for inhibition at 0.08 µg/mL: 0.08 μg/ml; for inhibition at 0.08 µg/mL / inhibition at 0.4 µg/mL / inhibition at 2 µg/mL / inhibition at 10 µg/mL: read-out: Inhibition rate; for inhibition at 0.4 µg/mL: 0.40 μg/ml; for inhibition at 2 µg/mL: 2.0 μg/ml; for inhibition at 10 µg/mL: 10 μg/ml; for pIC50: IC50, five 5× serial dilutions from 50 μg/ml
T1 construct: HIV-1 proteinase digests the fluorescent-labeled substrate; purchased
Outline: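 Recombinant HIV-1 PR cleaves a fluorescent-labeled substrate in reaction buffer. Samples were dissolved in DMSO and serially diluted 5-fold in water (five dilutions), then added before the enzyme. Fluorescence of the product was read after incubation; indinavir was the positive control.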

[9] = target: T2, HIV-1 reverse transcriptase (Human immunodeficiency virus type 1 group M subtype B, UniProt P04585); assay: Screening for the in vitro activity against the HIV-1 reverse transcriptase; assay type: biochemical; details: IC50, initial concentration 200 μg/ml
T2 construct: purchased
Description: Principle of the test: The template to which the HIV-1 reverse transcriptase interacts was covered onto the enzyme-lined template. In the optimal reaction conditions and system, HIV-1 RT will put the substrate comprising Biotin-dUTP onto the reaction template. The activity of the enzyme was measured as the amount of the integrating Biotin-dUTP in the reaction by using streptavidin-labeled horseradish peroxidase. Adding the sample to the reaction system can identify inhibitor of the enzyme.
1. HIV-1 RT: commercially available.
2. Treatment of the samples: Before use, the sample was dissolved in DMSO at a suitable concentration, then serially diluted (5×) with double distilled water, five serial dilutions per sample.
4. Methods: The diluted sample was added into the reaction buffer containing Biotin-dUTP and the genetic engineered target enzyme, and incubated in the optimal reaction conditions. A streptavidin-labeled horseradish peroxidase was added to visual the system, and OD450 was measured.

[10] = target: T3, HIV-1 integrase (HIV-1 IN) (Human immunodeficiency virus type 1 group M subtype B, UniProt P04585); assay: Screening for the activity against HIV-1 integrase; assay type: biochemical
T3 construct: a purified HIV-1 integrase was added into each well; purchased
Description: Principle of the test: A synthetic oligonucleotide of 30 nt was used as the donor substrate. A synthetic oligonucleotide of 20 nt was used as the target substrate. A 96-well plate was covered by the donor substrate, and a purified HIV-1 integrase was added into each well. ELISA was performed to measure the product of the target DNA chain transfer. A biotin-labeled alkali phosphatase was used to visual the system. OD value was measured by an Enzyme-linked Detector. Add a sample into the reaction system for screening the inhibitor of the enzyme.
1. HIV-1 IN: commercially available.
2. Treatment of the samples: Before use, the sample was dissolved in water or DMSO at a suitable concentration, then serially diluted (5×), four serial dilutions per sample. The stock solutions of two samples were 100-fold diluted with DMSO, then 5-fold diluted, four serial dilutions per sample. Positive control: S-y, provided by Shanghai Organic Chemistry Institute.
3. The donor substrate and target substrate: synthesized by Shanghai Biological Engineering Company (Shanghai Shenggong).
4. Methods: The diluted sample was added into a 96-well plate covered by the donor substrate, and then added into the reaction buffer containing the genetic engineered target enzyme and biotin-target substrate, incubated in the optimal reaction conditions. A biotin-labeled alkali phosphatase was used to visual the system to determine the absorbance at 450 nm (OD450).

[11] = test system: 293 cells; assay: Cell status of 293 cells treated with sample alone (herpes virus screening); details: 200 μg/ml, 24 hrs

Compound | inhibition at 50 µg/mL ([1]; Table 2 (repeated screening)) | inhibition at 50 µg/mL ([3]; Table 1) | inhibition at 50 µg/mL ([3]; Table 2 (repeated screening)) | inhibition at 50 µg/mL ([3]; Table 3 (repeated screening)) | inhibition at 50 µg/mL ([4]; Table 1) | IC50 [5] | IC50 [6] | IC50 [7] | inhibition at 0.08 µg/mL [8] | inhibition at 0.4 µg/mL [8] | inhibition at 2 µg/mL [8] | inhibition at 10 µg/mL [8] | pIC50 [8] | pIC50 [9] | Cytopathy and cell status, Sample [11] | also measured
C=C1CC2(OS(=O)(=O)O)OC3(CC2C(C)C)C(C)CCC13 (stereo not drawn) [Compound 20, Curcumol sulfonate] | 13% | 91.3% | 92.4% | 91.7% | 8.97% | 0.95 µg/mL | 4.98 µg/mL | 0.45 µg/mL | 8.76% | 7.44% | 10.6% | 9.46% | < 3.80 | < 3.20 | Good | inhibition rate, Results (%) A-549 ([1]; Table 1): 12.50%; inhibition rate, Results (%) A-549 ([1]; Table 3 (repeated screening)): 14.32%; inhibition rate, Results (%) SMMC-7721 ([2]; Table 1): 18.08%; inhibition rate, Results (%) SMMC-7721 ([2]; Table 2 (repeated screening)): 1.23%; inhibition rate, Results (%) SMMC-7721 ([2]; Table 3 (repeated screening)): 6.56%; inhibition rate, Results (%) LLC ([4]; Table 2 (repeated screening)): 9.37%; inhibition rate, Results (%) LLC ([4]; Table 3 (repeated screening)): 15.32%; Inhibition rate ([8]; 50 μg/ml): 12.68; pIC50 [10]: 3.90
CC(C)C1CC23OC1(O)CC(=CN1CCNCC1)C2CCC3C (stereo not drawn) [Compound 8, Curcumol piperazine hydrochloride] | 58.6% | 92% | 90.2% | 91.1% | 12.1% | 0.81 µg/mL | 3.28 µg/mL | 1.68 µg/mL | 9.74% | 2.64% | 5.27% | 0.62% | < 3.81 | < 3.20 | Good | inhibition at 50 µg/mL ([1]; Table 1): 60.5%; inhibition at 50 µg/mL ([1]; Table 3 (repeated screening)): 55.9%; inhibition at 50 µg/mL ([2]; Table 1): 4.5%; inhibition at 50 µg/mL ([2]; Table 2 (repeated screening)): 2.3%; inhibition at 50 µg/mL ([2]; Table 3 (repeated screening)): 7.98%; inhibition at 50 µg/mL ([4]; Table 2 (repeated screening)): 1.02%; inhibition at 50 µg/mL ([4]; Table 3 (repeated screening)): 3.12%; inhibition at 50 µg/mL ([8]; read-out: Inhibition rate, 50 μg/ml): 1.4%; inhibition at 100 µg/mL ([10]; initial concentration 100 μg/ml, read-out: IC50): < 50%
